Data on one molecule can be found in EP4361137A1, “PRUNE1 INHIBITORS AND THERAPEUTIC USE THEREOF” (CEINGE Biotecnologie Avanzate Franco Salvatore s.c. a r.l., priority 2022, dated 2024).

Structures are written as SMILES.

For one data set, the system named is D425-MED-Luc. Kind of data set: Orthotopic xenograft of D425-MED-Luc cells in nude mice. Format: in vivo. Conditions: 6 mg/kg/day intraperitoneally; for toxicity by total body weight, treated vs control mice / intracranial tumor growth (bioluminescence, photon emission) / PRUNE1 levels in cerebellar tumours (immunoblotting): HCl salt; for intracranial tumor growth (bioluminescence, photon emission): T21, after 14 days of treatment; for PRUNE1 levels in cerebellar tumours (immunoblotting): n.3 treated vs n.3 vehicle mice. The method, then: Starting after seven days from tumour implantation (i.e., once the tumours were established) the mice (grouped according to their bioluminescence values) were injected intraperitoneally with LEO-AA7.5(S)T at 6 mg/kg/day, or with water as the vehicle for the control group. After n.28 days from tumour implantation (i.e., after three weeks of AA7.5 treatment), the mice were sacrificed, and the organs were collected.
D425-MED-luc [Ferrucci et al., 2018] were implanted into the right cerebellar hemisphere of female (n.14) athymic nude mice (5 weeks old), as previously described [Asadzadeh et al., 2018], to establish orthotopic intracerebellar D425-MED-Luc xenograft models. Nude mice were anaesthetised with Ketamine/ Xylazine (87.5 mg/kg, 12.5 mg/kg, respectively). The mice were then placed in a stereotactic frame by hooking their incisors onto the frame hold. A small skin incision (length, 1 mm) and a burr hole (diameter, 0.7 mm) were created using a microsurgical drill (Fine Science Tools, Foster City, CA, USA). D425-MED-Luc cells (1 ×10^5)were resuspended in 10 µL PBS and injected slowly through the burr hole into the right cerebellar hemisphere (stereotactic coordinates from Bregma: anteroposterior, 5.5 mm; right lateral, 2.1 mm; dorsoventral 5.0 mm), with a steady force over 30 s, using a 10-AL, 26-gauge Hamilton Gastight model 1701RN syringe needle (SigmaAldrich) that was inserted perpendicular to the cranial surface. The incision was sutured using Safil polyglycolic acid synthetic absorbable suture (6/0). The mice were kept on a warming blanket after the surgery, to help them to maintain their body temperature. Their mobility and respiratory patterns were observed continuously, and once the mice had recovered from the anaesthesia; they were place in a sterile housing cage. The mice were monitored daily for development of potential neurological deficits. Seven days after the implantation of the cells, the mice were imaged, and tumour growth was evaluated by bioluminescence acquisition using an imaging system (IVIS 3D Illumina; Xenogen/ Caliper). For the acquisitions, the mice were anaesthetised by inhalational of isoflurane, and the D-luciferin (122799; PerkinElmer) (15 mg/mL stock) was injected intraperitoneally (100 µL per 10 g body weight). At 5 min from the luciferin injection, the mice were imaged for 3 min. To quantify the bioluminescence, the integrated fluxes of photons (p/s) within each area of interest were determined using the Living Images Software Package 3.2 (Xenogen-Perkin Elmer). For LEO-AA7.5(S)T in-vivo treatment, starting after seven days from tumour implantation (i.e., once the tumours were established) the mice (grouped according to their bioluminescence values) were injected intraperitoneally with LEO-AA7.5(S)T at 6 mg/kg/day, or with water as the vehicle for the control group. After 28 days from tumour implantation (i.e., after three weeks of AA7.5 treatment), the mice were sacrificed, and the organs were collected.
On the technique in general: A western blot detects proteins with antibodies after separation by electrophoresis.

The test system of a further data set is D425-Med cells. Kind of data set: In vivo combinatorial treatment with Vincristine, orthotopic medulloblastoma model. Further details: species or system nude mice. As to the method: We then measured the combinatorial treatment with (S)-(1-(4-((4-methoxybenzyl)amino)-1,3,5-triazin-2-yl)piperidin-3-yl)methanol HCl salt compound and Vincristine in vivo. To this end, D425-Med cells (1 ×10^5 cells) were implanted into the fourth ventricle of nude mice (n=18). After 7 days from tumour implantation (i.e., once the tumours were established) the mice (grouped according to their bioluminescence values) were injected intraperitoneally with 0.3 mg/kg/day Vincristine alone or in combination with 6 mg/kg/day (S)-(1-(4-((4-methoxybenzyl)amino)-1,3,5-triazin-2-yl)piperidin-3-yl)methanol HCl salt compound for 18 days (Figures 9E).

The mark [1] stands for this setting: listed as (S)-(1-(4-((4-methoxybenzyl)amino)-1,3,5-triazin-2-yl)piperidin-3-yl)methanol HC.

Regarding `COc1ccc(CNc2ncnc(N3CCC[C@H](CO)C3)n2)cc1.Cl` [LEO-AA7.5(S)T, (S)-(1-(4-((4-methoxybenzyl)amino)-1,3,5-triazin-2-yl)piperidin-3-yl)methanol HCl salt], in the data set on D425-MED-Luc, the “EMT in cerebellar tumours (N-cadherin loss, increased E-cadherin)” value is on record as “inhibition of EMT”; the “activated PTEN in cerebellar tumours (immunoblotting)” value was “overexpression”; the “nuclear phosphorylated SMAD2/3 and OTX2 in cerebellar tumours (immunoblotting)” value is reported as “inhibition”; the “toxicity by total body weight, treated vs control mice” value was “No significant differences”. Also, in the data set on D425-MED-Luc, the “intracranial tumor growth (bioluminescence, photon emission)” value is listed as “impairment of tumour growth” and the “PRUNE1 levels in cerebellar tumours (immunoblotting)” value is given as “downregulation of Prune1”. In the data set on D425-MED-Luc (setting [1]), the “intracranial tumor growth (bioluminescence, photon emission)” value is recorded as “significantly decreased”; the “toxicity by total body weight, treated vs control mice” value is “no decrease in total body weight”; the “PRUNE1 levels in cerebellar tumours (immunoblotting)” value was “reduced PRUNE1 levels”. Besides, the “treated mice showing metastases in the spinal cord” value in the data set with D425-MED-Luc (control mice 7 out of 7) was “two out of seven”. Moreover, the “intracranial tumor growth, combinatorial treatment with Vincristine” value with D425-Med cells (6 mg/kg/day plus 0.3 mg/kg/day Vincristine intraperitoneally for 18 days) is reported as “significantly decreased”. Also, the “angiogenesis (IVISense Integrin Receptor 680 Fluorescent Probe)” value in the data set on D425-Med cells (combinatorial treatment with Vincristine) is on record as “decreased levels of angiogenesis”.
